The nature of the series: Complete dissolution of agents to obtain the aqueous phase. It counts as physicochemical. The settings on record: as in Example 1, Stage 1. Here is the method:
0.25 gr ammonium glycyrrhizinate, (Sigma, 50531-50G, cas: 53956-04-0), 2 gr Maltodextrin, (Sigma, 419699-500G, cas: 9050-36-6), 2 gr sucrose, (Sigma, 59378-500G, cas: 57-50-1) and 14.3 gr triple distilled water (TDW) were mixed using a magnetic stirrer for 10 min at 35-40° C. until a complete dissolution and acquisition of an aqueous solution.
It should be noted that among the various selected agents used for the preparation of the various formulations of the invention so far, cyclodextrin was proven to be incompatible in terms of a complete dissolution to obtain the aqueous phase as in Example 1, Stage 1.

For cyclodextrin, the “compatibility in terms of a complete dissolution to obtain the aqueous phase” value is “incompatible”.

For the origin of these results see patent US11712430B2, “Formulated cannabis oil powder by nanoemulsification, methods of producing and uses thereof” (KARNAK TECHNOLOGIES, LLC, priority 2018, dated 2023).
